Results on one compound are retold here after patent US20170184695A1, “IMAGING OF CREATINE KINASE ENZYME EXPRESSION IN CANCEROUS TISSUES” (Sidra Medical and Research Center, priority 2014, published 2017).

SMILES strings stand for the structures.

For the assay, the system named is CK enzyme expressed in the tumor. As to the kind of experiment: In vivo CEST imaging of creatine kinase expression in tumor after tail vein injection of PCr. The note with it: 60 minutes post infusion (tail vein injection of PCr) vs base line CEST map, FIG. 3. How it is done: In certain embodiments, the radio frequency (RF) pulse can be provided at different frequency offsets. In certain embodiments, to detect the conversion of phosphocreatine to creatine, an RF pulse was applied at a frequency offset of about 1.8 ppm for a period of about 1 to about 3 seconds.
“b” is the base line CEST map from the same slice. “c” is a CEST map of the same slice at 60 minutes following tail vein injection of PCr.

Consider `CN(CC(=O)O)C(=N)NP(=O)(O)O` [PCr, phosphocreatine], for which the “increase in CEST contrast” value is given as “about 11%”.
